Data reported in PMC11671526, “β-caryophyllene sensitizes hepatocellular carcinoma cells to chemotherapeutics and inhibits cell malignancy through targeting MAPK signaling pathway” (Frontiers in Pharmacology, 2024).
Like-named read-outs stand apart in the source and are kept apart here.

Key:
Format in all cases: cell-based, human
HepG2 cells [1] = assay: Annexin V-FITC/PI cell apoptosis assay (flow cytometry); details: HepG2, 48 h; BCP 150 µM, DOXL 0.2 µM, DOXH 1.5 µM, DDPL 5 µM, DDPH 30 µM
Experimental: (§1) The cell apoptosis assay was performed as previously described ([Zhong et al., 2019]; [Farooq et al., 2023]). […] Ltd., Nanjing, China). The cells were analyzed using flow cytometer (BECKMAN COULTER, cytoFLEX, United States).

SMMC-7721 cells [2] = assay: as above; details: SMMC-7721, 48 h; BCP 150 µM, DOXL 0.2 µM, DOXH 1.5 µM, DDPL 5 µM, DDPH 30 µM
Experimental: as §1

HL-7702 cells = assay: as above; details: HL-7702, 48 h, BCP 150 µM, DOXL 0.2 µM, DOXH 1.5 µM, DDPL 5 µM, DDPH 30 µM
Experimental: as §1

HepG2 cells [3] = assay: CCK8 cell viability assay; details: for effect of combination with BCP (isobologram analysis): HepG2, BCP 25-150 μM combined with DOX or DDP; for IC50: HepG2, 48 h, individual treatment, read-out: IC50 (half maximal inhibitory concentration)
Experimental: (§2) Cell viability assay using the CCK8 reagent (Bimake, Shanghai, China) was conducted according to the manufacturer’s instructions. The cell proliferation data were used to calculate the cell viability. Briefly, HepG2, SMMC-7721, and HL-7702 cells with a density of 5 × 10^3 cells/well were seeded into each well of 96-well plates and incubated overnight. […] After 48 h, 10 µL of CCK8 reagent was added to each well, followed by 2 h incubation at 37°C and measurement of absorbance at 450 nm using a microplate reader (Molecular Devices, LLC.). […] The effects of the combinatorial inhibition were visualized by isobologram analyses ([Tallarida, 2001]). […] A line was drawn to link the two IC50 points. […] The dots above, on, or below the line indicate the “antagonistic,” “additive” and “synergistic” effects, respectively. The same method was used to obtain the CI value for the cotreatment of BCP and DDP.

[4] = system: HL-7702 normal liver cells; assay: CCK8 cell viability assay; details: for effect of combination with BCP (isobologram analysis): HL-7702, BCP 25-150 μM combined with DOX or DDP; for IC50: HL-7702, 48 h, individual treatment, read-out: IC50 (half maximal inhibitory concentration)
Experimental: as §2

SMMC-7721 cells [5] = assay: CCK8 cell viability assay; details: for IC50: SMMC-7721, 48 h, individual treatment, read-out: IC50 (half maximal inhibitory concentration); for effect of combination with BCP (isobologram analysis): SMMC-7721, BCP 25-150 μM combined with DOX or DDP
Experimental: as §2

[6] = HepG2, cotreatment with 25 μM BCP
[7] = HepG2, cotreatment with 50 μM BCP
[8] = HepG2, cotreatment with 75 μM BCP
[9] = HepG2, cotreatment with 100 μM BCP
[10] = HepG2, cotreatment with 150 μM BCP
[11] = SMMC-7721, cotreatment with 25 μM BCP
[12] = SMMC-7721, cotreatment with 50 μM BCP
[13] = SMMC-7721, cotreatment with 75 μM BCP
[14] = SMMC-7721, cotreatment with 100 μM BCP
[15] = SMMC-7721, cotreatment with 150 μM BCP

SMILES | apoptotic rate (HepG2 cells [1]) | apoptotic rate (SMMC-7721 cells [2]) | effect of combination with BCP (isobologram analysis) (HepG2 cells [3]) | combination index (CI) (HepG2 cells [3]; [6]) | combination index (CI) (HepG2 cells [3]; [7]) | combination index (CI) (HepG2 cells [3]; [8]) | combination index (CI) (HepG2 cells [3]; [9]) | combination index (CI) (HepG2 cells [3]; [10]) | effect of combination with BCP (isobologram analysis) [4] | effect of combination with BCP (isobologram analysis) (SMMC-7721 cells [5]) | combination index (CI) (SMMC-7721 cells [5]; [11]) | combination index (CI) (SMMC-7721 cells [5]; [12]) | combination index (CI) (SMMC-7721 cells [5]; [13]) | combination index (CI) (SMMC-7721 cells [5]; [14]) | combination index (CI) (SMMC-7721 cells [5]; [15]) | also measured
COc1cccc2c1C(=O)c1c(O)c3c(c(O)c1C2=O)C[C@@](O)(C(=O)CO)C[C@@H]3O[C@H]1C[C@H](N)[C@H](O)[C@H](C)O1 [DOX, doxorubicin] | 13.40% ± 0.65% | 8.74% ± 1.32% | synergistic | 0.53 | 0.58 | 0.56 | 0.65 | 0.85 | additive | synergistic | 0.48 | 0.53 | 0.50 | 0.55 | 0.65 | apoptotic rate (HL-7702 cells; listed as DOXH): 33.83% ± 1.27%; apoptotic rate (HL-7702 cells; listed as DOXL): 13.04% ± 0.57%; IC50 (HepG2 cells [3]; Homo sapiens): 1.99 ± 0.2 µM; IC50 ([4]; Homo sapiens, L02): 0.82 ± 0.09 µM; IC50 (SMMC-7721 cells [5]; Homo sapiens): 1.76 ± 0.13 µM
N.N.[Cl][Pt][Cl] [DDP, cisplatin] | 11.40% ± 0.52% | 7.67% ± 0.46% | synergistic | 0.74 | 0.71 | 0.66 | 0.68 | 0.88 | additive | synergistic | 0.59 | 0.57 | 0.52 | 0.51 | 0.58 | apoptotic rate (HL-7702 cells; listed as DDPH): 28.52% ± 1%; apoptotic rate (HL-7702 cells; listed as DDPL): 17.86% ± 0.69%; IC50 (HepG2 cells [3]): 27.4 ± 2.59 µM; fold lower IC50 in cotreatment than in treatment alone (HepG2 cells [3]; HepG2, cotreatment with 150 μM BCP vs DOX or DDP alone): over 9 fold; IC50 [4]: 11.5 ± 0.82 µM; combination index (CI) ([4]; HL-7702, cotreatment with 25 μM BCP): 1.04; combination index (CI) ([4]; HL-7702, cotreatment with 50 μM BCP): 0.95; combination index (CI) ([4]; HL-7702, cotreatment with 75 μM BCP): 1.01; combination index (CI) ([4]; HL-7702, cotreatment with 100 μM BCP): 0.89; combination index (CI) ([4]; HL-7702, cotreatment with 150 μM BCP): 0.92; fold reduction of IC50 in cotreatment from individual treatment ([4]; HL-7702, cotreatment with 150 μM BCP vs DOX or DDP alone): less than 1.5 fold; IC50 (SMMC-7721 cells [5]): 33.7 ± 1.43 µM; fold lower IC50 in cotreatment than in treatment alone (SMMC-7721 cells [5]; SMMC-7721, cotreatment with 150 μM BCP vs DOX or DDP alone): over 9 fold
